In patent US20240376094A2, “SELECTIVE BCL-XL PROTAC COMPOUNDS AND METHODS OF USE” (Les Laboratoires Servier, priority 2021, published 2024) one finds GI50 and DC50 data, which are given here for seven compounds.

Like-named read-outs stand apart in the source and are kept apart here.

The subject of assay [1] is EBC-1 lung cancer cell line. Description: EBC-1 cell proliferation, CellTiter-Glo assay. Format: cell-based. The conditions noted are these: Ebc-1 cell viability, CTG assay, 5 days of treatment, read-out: CTG 5 day Ebc1 GI50. Here is the method:
(§1) The ability of the BCL-xL degrader low molecular weight compounds to inhibit cell proliferation and survival was assessed using the Promega CellTiter-Glo® proliferation assay on the EBC-1 lung cancer cell line (RCB1965, obtained from RIKEN.) The cells were cultured in media that is optimal for their growth at 5% CO2, 37° C. in a tissue culture incubator. Prior to seeding for the proliferation assay, the cells were split at least 2 days before the assay to ensure optimal growth density. On the day of seeding, cells were lifted off tissue culture flasks using 0.25% trypsin. Cell viability and cell density were determined using a cell counter (Vi-Cell XR Cell Viability Analyzer, Beckman Coulter). Cells with higher than 85% viability were seeded in white clear bottom 384-well plates (Greiner cat #781098) at a density of 1000 cells per well in 50 μL of standard growth media. Plates were incubated at 37° C. overnight in a tissue culture incubator.
The BCL-xL degrader low molecular weight compounds were prepared to desired concentrations. A series of 10 dilutions were made for each prepared compound. The prepared compounds were then added to the cells resulting in final concentrations of 0.508 nM-10 μM. An acoustic transfer device (Echo555, Beckman Coulter) was used to add the compounds to the cells. Each treatment was tested in triplicate assay plates. Plates were incubated at 37° C. overnight or for 5 days in a tissue culture incubator. The ability of the compounds to inhibit cell proliferation and survival was assessed using the Promega CellTiter-Glo® proliferation assay. Plates were incubated at room temperature for 20 minutes to stabilize luminescent signals prior to reading using a multimode plate reader (PHERAstar FSX Microplate Reader, BMG Labtech).
To evaluate the effect of the compound treatments, luminescent counts of untreated cells were taken the day after seeding (Day 0 readings), and after 5 days of treatment (Day 5 readings). The Day 5 readings of the untreated cells were compared to the Day 0 readings. Assays with at least one cell doubling during the incubation period were considered valid. To evaluate the effect of the drug treatments, luminescent counts from wells containing untreated cells (100% viability) were used to normalize treated samples. The concentrations of treatment required to inhibit 50% of cell growth or survival ([…]) were calculated using a four parameter logistic regression equation.
(ATP-based viability assays read luminescence as a measure of living cells.)

For another assay, the target named is T1, HiBiT-tagged BCL-xL (Homo sapiens, UniProt Q07817).
T1 construct: expressed in transfected cells; host or cells: NCI-H1650 (ATCC No. CRL-5883), engineered HiBiT cell line
Put plainly: NCI-H1650 BCL-xL protein levels, Nano-Glo HiBiT Lytic Detection. Format: cell-based. The conditions noted are these: NCI-H1650 expressing HiBiT-tagged BCL-xL, overnight incubation, read-out: Bcl-xl HIBIT NCIH1650 DC50. The procedure: as §1, with “degrade BCL-xL protein” for “inhibit cell proliferation and survival”, “Nano-Glo® HiBiT Lytic Detection System. The NCI-H1650 (ATCC No. CRL-5883) was engineered to express HiBiT-tagged BCL-xL. The NCI-H1650 HiBiT” for “CellTiter-Glo® proliferation assay on the EBC-1 lung cancer”, “was” for “(RCB1965, obtained from RIKEN.) The cells were”, “protein level” for “proliferation”, “5000” for “1000”, “30” for “50”
The BCL-xL degrader low molecular weight compounds were prepared to desired concentrations. A series of 10 dilutions were made for each prepared compound. The prepared compounds were then added to the cells resulting in final concentrations of 0.508 nM-10 μM. An acoustic transfer device (Echo555, Beckman Coulter) was used to add the compounds to the cells. Each treatment was tested in triplicate assay plates. Plates were incubated at 37° C. overnight in a tissue culture incubator.
BCL-xL degradation was assessed through the addition of 30 μL of Nano-Glo® HiBiT Lytic Reagent (Promega, cat #N3040), a reagent which lyses cells and contains a furimazine substrate and the large subunit (LgBiT) used in NanoLuc® Binary Technology. The LgBiT subunit having high affinity to a HiBiT-tagged protein will bind HiBiT, if present, resulting in complex formation of a luminescent NanoBiT® enzyme. This reaction will emit a luminescent signal proportional to the amount of HiBiT-tagged BCL-xL present in the cell lysate. Plates were incubated at room temperature for 20 minutes to stabilize luminescent signals prior to reading using a luminescence reader (PHERAstar FSX Microplate Reader, BMG Labtech).
To evaluate the effect of the drug treatments, luminescent counts from wells containing untreated cells (100% HiBiT-tagged BCL-xL) were used to normalize treated samples. The concentrations of treatment required to inhibit 50% were calculated using a four parameter logistic regression equation.
(In general: HiBiT is a short tag that completes a luciferase, so light tracks the accessible tagged protein.)

T1 sequence (Q07817 whole entry): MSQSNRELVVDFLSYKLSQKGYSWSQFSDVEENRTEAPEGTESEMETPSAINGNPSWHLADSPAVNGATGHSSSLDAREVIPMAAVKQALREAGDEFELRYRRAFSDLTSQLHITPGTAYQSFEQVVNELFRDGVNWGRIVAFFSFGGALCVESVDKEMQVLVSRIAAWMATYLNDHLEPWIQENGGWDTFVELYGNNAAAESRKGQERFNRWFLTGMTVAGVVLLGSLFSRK

One may read the GI50 as the concentration at which growth is held to half of that of the control. With `Cc1ncsc1-c1ccc([C@H](C)NC(=O)[C@@H]2C[C@@H](O)CN2C(=O)[C@@H](NC(=O)CCOC2CCN(C(=O)c3nc(N4CCCc5c4nnc(Nc4nc6ccccc6s4)c5C)ccc3-c3cnn(CC45CC6(C)CC(C)(C4)CC(OCCN4CCCC4)(C6)C5)c3C)CC2)C(C)(C)C)cc1` [Example 167, (2S,4R)-1-((S)-2-(3-((1-(6-(3-(benzo[d]thiazol-2-ylamino)-4-methyl-6,7-dihydropyrido[2,3-c]pyridazin-8(5H)-yl)-3-(1-(((1r,3R,5S,7s)-3,5-dimethyl-7-(2-(pyrrolidin-1-yl)ethoxy)adamantan-1-yl)methyl)-5-methyl-1H-pyrazol-4-yl)picolinoyl)piperidin-4-yl)oxy)propanamido)-3,3-dimethylbutanoyl)-4-hydroxy-N—((S)-1-(4-(4-methylthiazol-5-yl)phenyl)ethyl)pyrrolidine-2-carboxamide], the GI50 in assay [1] (Homo sapiens, 120 h) came out at 136 nM. Further, at HiBiT-tagged BCL-xL, the DC50 came to 2 nM.
For `Cc1ncsc1-c1ccc([C@H](C)NC(=O)[C@@H]2C[C@@H](O)CN2C(=O)[C@@H](NC(=O)C[C@H]2CC[C@@H](NC(=O)c3nc(N4CCCc5c4nnc(Nc4nc6ccccc6s4)c5C)ccc3-c3cnn(CC45CC6(C)CC(C)(C4)CC(OCCN4CCCC4)(C6)C5)c3C)CC2)C(C)(C)C)cc1` [Example 163, 6-(3-(benzo[d]thiazol-2-ylamino)-4-methyl-6,7-dihydropyrido[2,3-c]pyridazin-8(5H)-yl)-3-(1-(((1r,3R,5S,7s)-3,5-dimethyl-7-(2-(pyrrolidin-1-yl)ethoxy)adamantan-1-yl)methyl)-5-methyl-1H-pyrazol-4-yl)-N-((1R,4S)-4-(2-(((S)-1-((2S,4R)-4-hydroxy-2-(((S)-1-(4-(4-methylthiazol-5-yl)phenyl)ethyl)carbamoyl)pyrrolidin-1-yl)-3,3-dimethyl-1-oxobutan-2-yl)amino)-2-oxoethyl)cyclohexyl)picolinamide], the GI50 in assay [1] (Homo sapiens, 120 h) amounted to 22 nM. In addition, the DC50 on HiBiT-tagged BCL-xL came to 6 nM.
For the compound `Cc1ncsc1-c1ccc([C@H](C)NC(=O)[C@@H]2C[C@@H](O)CN2C(=O)[C@@H](NC(=O)C[C@H]2CC[C@H](NC(=O)c3nc(N4CCCc5c4nnc(Nc4nc6ccccc6s4)c5C)ccc3-c3cnn(CC45CC6(C)CC(C)(C4)CC(OCCN4CCCC4)(C6)C5)c3C)CC2)C(C)(C)C)cc1` [Example 164, 6-(3-(benzo[d]thiazol-2-ylamino)-4-methyl-6,7-dihydropyrido[2,3-c]pyridazin-8(5H)-yl)-3-(1-(((1r,3R,5S,7s)-3,5-dimethyl-7-(2-(pyrrolidin-1-yl)ethoxy)adamantan-1-yl)methyl)-5-methyl-1H-pyrazol-4-yl)-N-((1S,4R)-4-(2-(((S)-1-((2S,4R)-4-hydroxy-2-(((S)-1-(4-(4-methylthiazol-5-yl)phenyl)ethyl)carbamoyl)pyrrolidin-1-yl)-3,3-dimethyl-1-oxobutan-2-yl)amino)-2-oxoethyl)cyclohexyl)picolinamide], in assay [1] (Homo sapiens, 120 h), the GI50 turned out to be 35 nM. Also, the DC50 on HiBiT-tagged BCL-xL worked out at 2 nM.
With `Cc1ncsc1-c1ccc([C@H](C)NC(=O)[C@@H]2C[C@@H](O)CN2C(=O)[C@@H](NC(=O)CCOCCOCCOCCN(C)C(=O)c2nc(N3CCCc4c3nnc(Nc3nc5ccccc5s3)c4C)ccc2-c2cnn(CC34CC5(C)CC(C)(C3)CC(OCCN3CCCC3)(C5)C4)c2C)C(C)(C)C)cc1` [Example 160, 6-(3-(benzo[d]thiazol-2-ylamino)-4-methyl-6,7-dihydropyrido[2,3-c]pyridazin-8(5H)-yl)-3-(1-(((1r,3R,5S,7s)-3,5-dimethyl-7-(2-(pyrrolidin-1-yl)ethoxy)adamantan-1-yl)methyl)-5-methyl-1H-pyrazol-4-yl)-N—((S)-14-((2S,4R)-4-hydroxy-2-(((S)-1-(4-(4-methylthiazol-5-yl)phenyl)ethyl)carbamoyl)pyrrolidine-1-carbonyl)-15,15-dimethyl-12-oxo-3,6,9-trioxa-13-azahexadecyl)-N-methylpicolinamide], the GI50 in assay [1] (Homo sapiens, 120 h) amounted to 58 nM. In addition, the DC50 at HiBiT-tagged BCL-xL worked out at 2 nM.
The like results for `Cc1ncsc1-c1ccc([C@H](C)NC(=O)[C@@H]2C[C@@H](O)CN2C(=O)[C@@H](NC(=O)CCOCCOCCOCCNC(=O)c2nc(N3CCCc4c3nnc(Nc3nc5ccccc5s3)c4C)ccc2-c2cnn(CC34CC5(C)CC(C)(C3)CC(OCCN3CCCC3)(C5)C4)c2C)C(C)(C)C)cc1` [Example 159, 6-(3-(benzo[d]thiazol-2-ylamino)-4-methyl-6,7-dihydropyrido[2,3-c]pyridazin-8(5H)-yl)-3-(1-(((1r,3R,5S,7s)-3,5-dimethyl-7-(2-(pyrrolidin-1-yl)ethoxy)adamantan-1-yl)methyl)-5-methyl-1H-pyrazol-4-yl)-N—((S)-14-((2S,4R)-4-hydroxy-2-(((S)-1-(4-(4-methylthiazol-5-yl)phenyl)ethyl)carbamoyl)pyrrolidine-1-carbonyl)-15,15-dimethyl-12-oxo-3,6,9-trioxa-13-azahexadecyl)picolinamide] were, in that order, 8 nM and greater than 1670 nM.
As for `Cc1ncsc1-c1ccc([C@H](C)NC(=O)[C@@H]2C[C@@H](O)CN2C(=O)[C@@H](NC(=O)[C@H]2C[C@H](NC(=O)c3nc(N4CCCc5c4nnc(Nc4nc6ccccc6s4)c5C)ccc3-c3cnn(CC45CC6(C)CC(C)(C4)CC(OCCN4CCCC4)(C6)C5)c3C)C2)C(C)(C)C)cc1` [Example 165, 6-(3-(benzo[d]thiazol-2-ylamino)-4-methyl-6,7-dihydropyrido[2,3-c]pyridazin-8(5H)-yl)-3-(1-(((1r,3R,5S,7s)-3,5-dimethyl-7-(2-(pyrrolidin-1-yl)ethoxy)adamantan-1-yl)methyl)-5-methyl-1H-pyrazol-4-yl)-N-((1S,3R)-3-(((S)-1-((2S,4R)-4-hydroxy-2-(((S)-1-(4-(4-methylthiazol-5-yl)phenyl)ethyl)carbamoyl)pyrrolidin-1-yl)-3,3-dimethyl-1-oxobutan-2-yl)carbamoyl)cyclobutyl)picolinamide], the GI50 in assay [1] (Homo sapiens, 120 h) came to 35 nM. Further, the DC50 on HiBiT-tagged BCL-xL is greater than 1670 nM.
For the compound `Cc1ncsc1-c1ccc([C@H](C)NC(=O)[C@@H]2C[C@@H](O)CN2C(=O)[C@@H](NC(=O)CCOCCOCCNC(=O)c2nc(N3CCCc4c3nnc(Nc3nc5ccccc5s3)c4C)ccc2-c2cnn(CC34CC5(OCCN6CCCC6)C[C@](C)(C3)C[C@](C)(C4)C5)c2C)C(C)(C)C)cc1` [Example 158, 6-(3-(benzo[d]thiazol-2-ylamino)-4-methyl-6,7-dihydropyrido[2,3-c]pyridazin-8(5H)-yl)-3-(1-(((1r,3R,5S,7s)-3,5-dimethyl-7-(2-(pyrrolidin-1-yl)ethoxy)adamantan-1-yl)methyl)-5-methyl-1H-pyrazol-4-yl)-N-(2-(2-(3-(((S)-1-((2S,4R)-4-hydroxy-2-(((S)-1-(4-(4-methylthiazol-5-yl)phenyl)ethyl)carbamoyl)pyrrolidin-1-yl)-3,3-dimethyl-1-oxobutan-2-yl)amino)-3-oxopropoxy)ethoxy)ethyl)picolinamide], the GI50 in assay [1] came to 10 nM. For the same compound, on HiBiT-tagged BCL-xL, the DC50 was greater than 1670 nM.
